# Measurements reported in ChEMBL document CHEMBL1154879, “Discovery of (thienopyrimidin-2-yl)aminopyrimidines as potent, selective, and orally available pan-PI3-kinase and dual pan-PI3-kinase/mTOR inhibitors for the treatment of cancer” (J Med Chem, 2010).
# Active and inactive are the calls of the source. No cut-off for these calls is given here.
# Assays:
# Mus musculus [1] = assay: Inhibition of PI3K/Akt/mTOR pathway signaling in PI3Kalpha mutant expressing human MCF7.1 cells xenografted nu/nu mouse assessed as inhibition of Pras40 Thr246 phosphorylation at 12.5 mg/kg, po qd for 21 days measured 1 hr after last administered dose on day 21 by ELISA; type: functional
# [2] = AUC in nu/nu mouse at 5 mg/kg, po; type: ADME, organism-based; set-up: dose 5 mg/kg, route oral; conditions: plasma
# Mus musculus [3] = assay: Inhibition of PI3K/Akt/mTOR pathway signaling in PI3Kalpha mutant expressing human MCF7.1 cells xenografted nu/nu mouse assessed as inhibition of Pras40 Thr246 phosphorylation at 6.25 mg/kg, po qd for 21 days measured 1 hr after last administered dose on day 21 by ELISA; type: functional
# Mus musculus [4] = assay: Toxicity in human MCF7.1 cells expressing PI3Kalpha mutant xenografted nu/nu mouse assessed as body weight loss at 6.25 mg/kg, po qd for 21 days; type: organism-based; set-up: dose 6.25 mg/kg, route oral; conditions: in vivo, 504 h
# Mus musculus [5] = assay: Inhibition of PI3K/Akt/mTOR pathway signaling in PI3Kalpha mutant expressing human MCF7.1 cells xenografted nu/nu mouse assessed as inhibition of S6RP Ser235/236 phosphorylation at 25 mg/kg, po qd for 21 days measured 4 hrs after last administered dose on day 21 by electrochemiluminescence assay; type: functional
# [6] = Antiproliferative activity against human MCF7.1 cells expressing PI3Kalpha mutant after 3 to 4 days; type: functional, cell-based
# [7] = target: Tyrosine-protein kinase SYK (Homo sapiens, UniProt P43405); assay: Inhibition of SYK
# Mus musculus [8] = assay: Toxicity in human MCF7.1 cells expressing PI3Kalpha mutant xenografted nu/nu mouse assessed as body weight loss at 12.5 mg/kg, po qd for 21 days; type: organism-based; set-up: dose 12.5 mg/kg, route oral; conditions: in vivo, 504 h
# Mus musculus [9] = assay: Toxicity in human MCF7.1 cells expressing PI3Kalpha mutant xenografted nu/nu mouse assessed as body weight loss at 50 mg/kg, po qd for 21 days; type: organism-based; set-up: dose 50 mg/kg, route oral; conditions: in vivo, 504 h
# [10] = target: Phosphatidylinositol 4,5-bisphosphate 3-kinase catalytic subunit beta isoform (Homo sapiens, UniProt P42338); assay: Inhibition of recombinant PI3Kbeta assessed as PIP3 product formation by fluorescence polarization assay
# Sequence of Phosphatidylinositol 4,5-bisphosphate 3-kinase catalytic subunit beta isoform (P42338 whole entry, canonical isoform): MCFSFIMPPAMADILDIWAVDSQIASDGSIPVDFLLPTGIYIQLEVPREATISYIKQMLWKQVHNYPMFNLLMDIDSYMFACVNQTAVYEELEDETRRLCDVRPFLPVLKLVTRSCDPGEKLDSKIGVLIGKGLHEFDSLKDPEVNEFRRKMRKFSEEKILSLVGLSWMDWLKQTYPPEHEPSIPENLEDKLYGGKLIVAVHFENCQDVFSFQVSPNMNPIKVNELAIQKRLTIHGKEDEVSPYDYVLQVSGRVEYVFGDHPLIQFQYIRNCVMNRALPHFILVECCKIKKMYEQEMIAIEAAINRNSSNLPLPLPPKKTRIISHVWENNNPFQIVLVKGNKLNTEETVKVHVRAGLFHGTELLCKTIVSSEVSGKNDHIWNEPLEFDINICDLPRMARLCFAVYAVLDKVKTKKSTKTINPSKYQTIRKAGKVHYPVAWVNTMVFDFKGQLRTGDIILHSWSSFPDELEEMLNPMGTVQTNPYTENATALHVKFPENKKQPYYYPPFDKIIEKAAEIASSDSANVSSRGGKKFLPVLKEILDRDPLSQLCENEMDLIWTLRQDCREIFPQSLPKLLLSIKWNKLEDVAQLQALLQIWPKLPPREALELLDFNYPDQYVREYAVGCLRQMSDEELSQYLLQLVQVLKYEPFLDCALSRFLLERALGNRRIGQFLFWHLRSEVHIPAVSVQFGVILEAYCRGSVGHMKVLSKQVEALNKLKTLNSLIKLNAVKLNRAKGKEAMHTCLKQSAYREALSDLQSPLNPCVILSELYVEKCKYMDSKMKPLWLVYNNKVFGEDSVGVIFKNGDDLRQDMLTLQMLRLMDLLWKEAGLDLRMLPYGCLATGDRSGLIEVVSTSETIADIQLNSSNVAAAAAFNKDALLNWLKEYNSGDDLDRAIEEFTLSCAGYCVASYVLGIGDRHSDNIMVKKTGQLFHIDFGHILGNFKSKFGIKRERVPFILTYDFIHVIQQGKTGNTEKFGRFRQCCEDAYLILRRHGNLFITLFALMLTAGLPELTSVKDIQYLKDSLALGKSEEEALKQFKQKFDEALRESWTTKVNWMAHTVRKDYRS
# Mus musculus [11] = assay: Inhibition of PI3K/Akt/mTOR pathway signaling in PI3Kalpha mutant expressing human MCF7.1 cells xenografted nu/nu mouse assessed as inhibition of Akt Ser473 phosphorylation at 6.25 mg/kg, po qd for 21 days measured 1 hr after last administered dose on day 21 by electrochemiluminescence assay; type: functional
# [12] = target: Phosphatidylinositol 4-phosphate 3-kinase C2 domain-containing subunit alpha (Homo sapiens) (UniProt O00443); assay: Inhibition of PIK3C2alpha at 1 uM
# Sequence of Phosphatidylinositol 4-phosphate 3-kinase C2 domain-containing subunit alpha (Homo sapiens) (O00443 whole entry, the tested form may be a part): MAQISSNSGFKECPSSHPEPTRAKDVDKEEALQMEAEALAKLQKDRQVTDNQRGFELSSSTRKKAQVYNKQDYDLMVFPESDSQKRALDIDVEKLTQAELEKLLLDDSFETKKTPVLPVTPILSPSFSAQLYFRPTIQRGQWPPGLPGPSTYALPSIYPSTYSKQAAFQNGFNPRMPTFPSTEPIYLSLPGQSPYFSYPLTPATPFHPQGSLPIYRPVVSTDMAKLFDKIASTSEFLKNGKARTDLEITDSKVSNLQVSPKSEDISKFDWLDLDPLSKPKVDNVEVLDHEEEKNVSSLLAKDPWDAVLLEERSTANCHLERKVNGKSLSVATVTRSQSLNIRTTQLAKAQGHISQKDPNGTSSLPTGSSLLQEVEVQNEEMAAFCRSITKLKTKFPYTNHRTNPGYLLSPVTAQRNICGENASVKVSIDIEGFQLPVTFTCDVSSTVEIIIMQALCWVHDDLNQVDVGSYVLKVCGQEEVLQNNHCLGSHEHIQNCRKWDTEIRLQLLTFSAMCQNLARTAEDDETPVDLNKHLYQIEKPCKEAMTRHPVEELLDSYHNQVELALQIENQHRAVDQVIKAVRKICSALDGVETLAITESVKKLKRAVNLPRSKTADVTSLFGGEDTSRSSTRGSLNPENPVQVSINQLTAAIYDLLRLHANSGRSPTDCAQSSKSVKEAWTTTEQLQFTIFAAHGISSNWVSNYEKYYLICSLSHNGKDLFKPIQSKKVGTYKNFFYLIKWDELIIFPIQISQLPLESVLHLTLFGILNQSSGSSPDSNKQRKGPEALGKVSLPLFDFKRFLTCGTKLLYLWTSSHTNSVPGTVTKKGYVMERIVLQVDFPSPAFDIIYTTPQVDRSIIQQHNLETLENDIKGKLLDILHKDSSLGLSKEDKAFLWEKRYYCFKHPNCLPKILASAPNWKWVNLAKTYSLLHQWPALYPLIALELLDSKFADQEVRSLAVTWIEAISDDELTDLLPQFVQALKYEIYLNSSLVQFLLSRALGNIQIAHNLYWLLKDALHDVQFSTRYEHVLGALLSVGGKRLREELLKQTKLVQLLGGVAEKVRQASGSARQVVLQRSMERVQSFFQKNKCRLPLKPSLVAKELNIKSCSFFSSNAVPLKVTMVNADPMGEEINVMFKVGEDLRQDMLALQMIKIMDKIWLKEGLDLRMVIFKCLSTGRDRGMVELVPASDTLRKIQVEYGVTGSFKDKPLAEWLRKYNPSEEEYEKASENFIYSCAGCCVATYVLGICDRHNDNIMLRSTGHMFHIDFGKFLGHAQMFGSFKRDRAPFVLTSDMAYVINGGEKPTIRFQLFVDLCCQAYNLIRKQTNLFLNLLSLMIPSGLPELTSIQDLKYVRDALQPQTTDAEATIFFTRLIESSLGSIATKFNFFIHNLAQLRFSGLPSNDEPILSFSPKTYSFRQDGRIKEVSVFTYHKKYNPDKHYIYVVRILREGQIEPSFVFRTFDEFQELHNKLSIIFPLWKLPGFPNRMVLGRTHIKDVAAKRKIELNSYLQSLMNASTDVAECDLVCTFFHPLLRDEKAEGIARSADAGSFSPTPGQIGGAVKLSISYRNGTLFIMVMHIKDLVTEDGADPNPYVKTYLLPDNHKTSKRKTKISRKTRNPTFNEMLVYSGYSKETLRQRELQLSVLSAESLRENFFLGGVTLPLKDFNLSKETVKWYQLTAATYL
# Mus musculus [13] = assay: Inhibition of PI3K/Akt/mTOR pathway signaling in PI3Kalpha mutant expressing human MCF7.1 cells xenografted nu/nu mouse assessed as inhibition of S6RP Ser235/236 phosphorylation at 12.5 mg/kg, po qd for 21 days measured 4 hrs after last administered dose on day 21 by electrochemiluminescence assay; type: functional
# Mus musculus [14] = assay: Inhibition of PI3K/Akt/mTOR pathway signaling in PI3Kalpha mutant expressing human MCF7.1 cells xenografted nu/nu mouse assessed as inhibition of S6RP Ser235/236 phosphorylation at 6.25 mg/kg, po qd for 21 days measured 4 hrs after last administered dose on day 21 by electrochemiluminescence assay; type: functional
# Mus musculus [15] = assay: Inhibition of PI3K/Akt/mTOR pathway signaling in PI3Kalpha mutant expressing human MCF7.1 cells xenografted nu/nu mouse assessed as inhibition of Pras40 Thr246 phosphorylation at 6.25 mg/kg, po qd for 21 days measured 4 hrs after last administered dose on day 21 by ELISA; type: functional
# Mus musculus [16] = assay: Inhibition of PI3K/Akt/mTOR pathway signaling in PI3Kalpha mutant expressing human MCF7.1 cells xenografted nu/nu mouse assessed as inhibition of Akt Ser473 phosphorylation at 25 mg/kg, po qd for 21 days measured 1 hr after last administered dose on day 21 by electrochemiluminescence assay; type: functional
# [17] = Oral bioavailability in nu/nu mouse at 5 mg/kg, po; type: ADME, organism-based; conditions: in vivo
# [18] = target: Phosphatidylinositol 4-kinase beta (Homo sapiens) (UniProt Q9UBF8); assay: Inhibition of PI4Kbeta at 1 uM
# Sequence of Phosphatidylinositol 4-kinase beta (Homo sapiens) (Q9UBF8 2-816 limits assumed): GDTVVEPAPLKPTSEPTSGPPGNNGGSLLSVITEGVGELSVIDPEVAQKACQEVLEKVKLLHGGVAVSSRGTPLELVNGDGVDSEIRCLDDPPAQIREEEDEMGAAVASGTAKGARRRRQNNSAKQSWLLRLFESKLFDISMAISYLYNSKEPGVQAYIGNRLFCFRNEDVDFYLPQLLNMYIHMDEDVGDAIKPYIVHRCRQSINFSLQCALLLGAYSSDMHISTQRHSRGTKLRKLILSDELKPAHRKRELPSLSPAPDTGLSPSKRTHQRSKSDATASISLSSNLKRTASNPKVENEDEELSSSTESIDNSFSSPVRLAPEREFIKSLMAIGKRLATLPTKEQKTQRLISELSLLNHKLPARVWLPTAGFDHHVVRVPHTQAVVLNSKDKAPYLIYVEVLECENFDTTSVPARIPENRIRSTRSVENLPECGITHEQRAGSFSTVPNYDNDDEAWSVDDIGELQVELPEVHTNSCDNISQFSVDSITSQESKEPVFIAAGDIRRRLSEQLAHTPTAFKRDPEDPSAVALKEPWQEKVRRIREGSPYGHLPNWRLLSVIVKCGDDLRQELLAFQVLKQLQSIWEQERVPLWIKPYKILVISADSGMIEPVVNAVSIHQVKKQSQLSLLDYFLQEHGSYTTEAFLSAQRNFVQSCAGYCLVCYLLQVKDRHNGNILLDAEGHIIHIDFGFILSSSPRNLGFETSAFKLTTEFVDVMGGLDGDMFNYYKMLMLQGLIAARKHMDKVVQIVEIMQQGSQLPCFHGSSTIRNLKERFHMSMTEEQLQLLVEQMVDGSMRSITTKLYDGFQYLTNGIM
# [19] = Antitumor activity against human MCF7.1 cells expressing PI3Kalpha mutant xenografted in nu/nu mouse assessed as inhibition of tumor growth at 6.25 mg/kg, po qd for 21 days; type: functional; conditions: MCF7.1, 504 h, read-out: TGI
# [20] = Antitumor activity against human MCF7.1 cells expressing PI3Kalpha mutant xenografted in nu/nu mouse assessed as inhibition of tumor growth at 50 mg/kg, po qd for 21 days; type: functional; conditions: MCF7.1, 504 h, read-out: TGI
# Mus musculus [21] = assay: Inhibition of PI3K/Akt/mTOR pathway signaling in PI3Kalpha mutant expressing human MCF7.1 cells xenografted nu/nu mouse assessed as inhibition of Akt Ser473 phosphorylation at 6.25 mg/kg, po qd for 21 days measured 4 hrs after last administered dose on day 21 by electrochemiluminescence assay; type: functional
# Mus musculus [22] = assay: Inhibition of PI3K/Akt/mTOR pathway signaling in PI3Kalpha mutant expressing human MCF7.1 cells xenografted nu/nu mouse assessed as inhibition of S6RP Ser235/236 phosphorylation at 25 mg/kg, po qd for 21 days measured 1 hr after last administered dose on day 21 by electrochemiluminescence assay; type: functional
# [23] = target: Serine/threonine-protein kinase mTOR (Homo sapiens, UniProt P42345)
# Mus musculus [24] = assay: Inhibition of PI3K/Akt/mTOR pathway signaling in PI3Kalpha mutant expressing human MCF7.1 cells xenografted nu/nu mouse assessed as inhibition of S6RP Ser235/236 phosphorylation at 12.5 mg/kg, po qd for 21 days measured 1 hr after last administered dose on day 21 by electrochemiluminescence assay; type: functional
# Mus musculus [25] = assay: Inhibition of PI3K/Akt/mTOR pathway signaling in PI3Kalpha mutant expressing human MCF7.1 cells xenografted nu/nu mouse assessed as inhibition of Pras40 Thr246 phosphorylation at 25 mg/kg, po qd for 21 days measured 1 hr after last administered dose on day 21 by ELISA; type: functional
# MCF7.1 = assay: Antitumor activity against human MCF7.1 cells expressing PI3Kalpha mutant xenografted in nu/nu mouse assessed as inhibition of tumor growth at 25 mg/kg, po qd for 21 days; type: functional, organism-based; set-up: dose 25 mg/kg
# Mus musculus [26] = assay: Inhibition of PI3K/Akt/mTOR pathway signaling in PI3Kalpha mutant expressing human MCF7.1 cells xenografted nu/nu mouse assessed as inhibition of Pras40 Thr246 phosphorylation at 25 mg/kg, po qd for 21 days measured 4 hrs after last administered dose on day 21 by ELISA; type: functional
# Mus musculus [27] = assay: Inhibition of PI3K/Akt/mTOR pathway signaling in PI3Kalpha mutant expressing human MCF7.1 cells xenografted nu/nu mouse assessed as inhibition of Akt Ser473 phosphorylation at 25 mg/kg, po qd for 21 days measured 4 hrs after last administered dose on day 21 by electrochemiluminescence assay; type: functional
compound,measurement,setting,value
Cc1nc(N)ncc1-c1nc(N2CCOCC2)c2sc(C(C)(C)O)cc2n1,inhibition in vivo at 12.5 mg/kg,Mus musculus [1],100%
same,AUC,[2],4.8 µM·h
same,inhibition in vivo at 6.25 mg/kg,Mus musculus [3],98%
same,Activity,Mus musculus [4],Non-toxic
same,inhibition in vivo at 25 mg/kg,Mus musculus [5],63%
same,IC50,[6],0.28 µM
same,IC50,[7],> 1 µM
same,Activity,Mus musculus [8],Non-toxic
same,Activity,Mus musculus [9],Non-toxic
same,IC50,[10],0.025 µM
same,inhibition in vivo at 6.25 mg/kg,Mus musculus [11],81%
same,inhibition,[12],inactive
same,inhibition in vivo at 12.5 mg/kg,Mus musculus [13],50%
same,inhibition in vivo at 6.25 mg/kg,Mus musculus [14],51%
same,inhibition in vivo at 6.25 mg/kg,Mus musculus [15],54%
same,inhibition in vivo at 25 mg/kg,Mus musculus [16],82%
same,bioavailability,[17],100%
same,inhibition,[18],inactive
same,inhibition in vivo at 6.25 mg/kg,[19],28%
same,inhibition in vivo at 50 mg/kg,[20],88%
same,inhibition in vivo at 6.25 mg/kg,Mus musculus [21],43%
same,inhibition in vivo at 25 mg/kg,Mus musculus [22],74%
same,IC50,[23],0.75 µM
same,inhibition in vivo at 12.5 mg/kg,Mus musculus [24],77%
same,inhibition in vivo at 25 mg/kg,Mus musculus [25],97%
same,Activity,MCF7.1,Active
same,inhibition in vivo at 25 mg/kg,Mus musculus [26],95%
same,inhibition in vivo at 25 mg/kg,Mus musculus [27],66%
